Read-outs that look alike come from different tables or passages of the source.

One data set concerns MCF7. As to the kind of experiment: Cytotoxicity under normoxia (MTT), MCF7. The note with it: Homo sapiens, MCF7, read-out: IC50 MCF7. In kind it is cell-based, Human. On the procedure:
(§1) The cytotoxicity of the compounds 5a-c and their parent alkaloids was evaluated by the 3-[4,5-dimethylthiazole-2-yl]-2,5-diphenyltetrazolium bromide (MTT) assay against 5 cancerous and 2 non-cancerous cell lines (Table 4).
(§2) The eight cell lines HEK293 (Human embryonic kidney 293), CHO-Kt (Chinese hamster ovary K1), MCF-7 cells (Human breast adenocarcinoma), HCT116 (human colorectal carcinoma), RKO (Human rectal carcinoma), SW480 (human colorectal carcinoma), H460 (Human lung cancer), and MRCS (Normal human fetal lung fibroblast), were obtained from the ATCC. The cell lines were routinely grown in alpha minimum essential medium (α-MEM) containing 5% fetal calf serum (FCS). The appropriate number of cells (HCT116=400 cells/well, H460 cells=600 cells/well) were seeded into 96-well plates under normoxic or hypoxic conditions. Cells were plated in 100 μL α-MEM containing 10% FCS, 10 mM D-Glucose and 0.2 mM 20-deoxycytidine. After incubation for 2 h, the compounds were added at the appropriate concentration and incubated for further 4 h. The cells were then washed three times with drug-free α-MEM (containing 5% FCS and pen/strep). The plates were then incubated for 5 days under normoxic conditions. The cells were stained with sulphorhodamine B to measure total cells as per the standard procedure described in Skehan, et. al. [Skehan, P., et. al., J. Natl. Cancer Inst., 1990, 82, 1107-1112, incorporated herein by reference in its entirety]. The IC50 was determined by interpolation as the compound concentration reducing staining to 50% of controls on the same plate as per the standard procedure described in Guise, et. al. [Guise, C. P., et. al., Biochem. Pharmacol., 2007, 74, 810-820, incorporated herein by reference in its entirety].

Data set [1] concerns HCT116. As to the kind of experiment: Cytotoxicity under normoxia (MTT), HCT116. The data set is classed as cell-based, human. The following applies: Homo sapiens, HCT-116, read-out: IC50 HCT116. On the procedure: as §1, §2
Another data set concerns RKO. As to the kind of experiment: Cytotoxicity under normoxia (MTT), RKO. In kind it is cell-based, Human. The following applies: Homo sapiens, RKO, read-out: IC50 RKO. How it is done:
as §1, §2

For the next data set, the system named is SW480. Description: Cytotoxicity under normoxia (MTT), SW480. In kind it is cell-based, human. The note with it: Homo sapiens, SW480, read-out: IC50 SW480. How it is done:
as §1, §2

The test system of the next data set is MRC5. As to the kind of experiment: Cytotoxicity under normoxia (MTT), MRC5. The data set is classed as cell-based, human. The following applies: Homo sapiens, MRC5, read-out: IC50 MRC5. On the procedure:
as §1, §2

Data set [2] has as its system HCT116. As to the kind of experiment: Cytotoxicity under normoxia and hypoxia (anaerobic chamber), HCT116. The data set is classed as cell-based, human. The following applies: for IC50: 4 h exposure. How it is done:
(§3) The ability of the designed prodrugs to liberate the active alkaloids in hypoxic tumors was evaluated by testing them under hypoxic conditions using an anaerobic chamber. The three prodrugs 5a-c and their parent alkaloids as well as the reference compounds PR-104A, the parent alcohol form of the phosphate pre-prodrug PR-104, and evofosfamide were tested using the HCT116 and H460 cell lines under both normoxic and hypoxic conditions (Table 5). The prodrugs were much less cytotoxic than the parent drugs, in agreement with the results using the other cell lines described above (see FIG. 6).
as §2

The subject of a further data set is H460. Description: Cytotoxicity under normoxia and hypoxia (anaerobic chamber), H460. The following applies: for IC50: 4 h exposure. In kind it is cell-based, Human. How it is done: as §3, §2
A further data set is described as follows: LogD. In kind it is physicochemical. On the procedure: (§4) Water solubility, log D, and PAMPA-BBB were evaluated using the protocols as described in Omran, et. al. [Omran, Z., et. al., Chem. Pharm. Bull., 2019, 67, 1208-1210, incorporated herein by reference in its entirety].
A short description of the next data set: PBS (pH 7.4) solubility. In kind it is physicochemical. How it is done: as §4
Data set [3] is described as follows: BBB-Parallel Artificial Membrane Permeability Assay (BBB-PAMPA). In kind it is in vitro ADME. How it is done:
The physicochemical properties of the new compounds were evaluated (Table 1). […] Consequently, these derivatives lost their BBB penetrability, as predicted by the BBB-Parallel Artificial Membrane Permeability Assay (BBB-PAMPA), whereas their parent alkaloids had free passage through the BBB.
as §4
(In general: The PAMPA barrier holds no transporters, so it reflects passive diffusion.)

The mark [4] stands for this setting: Homo sapiens, HCT-116, HTC 116, hypoxia, read-out: IC50 (Hypoxia).
Setting [5] is: Homo sapiens, HCT-116, HTC 116, normoxia, read-out: IC50 (Normoxia).
[6] abbreviates: Homo sapiens, NCI-H460, H460, hypoxia, read-out: IC50 (Hypoxia).
[7] abbreviates: Homo sapiens, NCI-H460, H460, normoxia, read-out: IC50 (Normoxia).

As a reminder, the IC50 is the concentration that gives 50% inhibition. The term melting point denotes the temperature, or range, at which the solid turns liquid. With `COc1cc2c3c(c4cc(OC)c(OC)cc4c2cc1OC)C[N+]1(Cc2c([N+](=O)[O-])ncn2C)CCC[C@@H]1C3.[Br-]` (stereo partly drawn) [Compound 5c, (13aR)-2,3,6,7-tetramethoxy-10-((1-methyl-4-nitro-1H-imidazol-5-yl)methyl)-10,11,12,13,13a, 14-hexahydro-9H-dibenzo[f,h]pyrrolo[1,2-b]isoquinolin-10-ium bromide], the melting point lay in the range of 185 to 187 °C. In the data set on MCF7, the IC50 is 8.05 ± 0.343 µM. In addition, in the data set on HCT116 [1], the IC50 came out at 9.02 ± 1.13 µM. Besides, the IC50 in the data set with RKO was determined as 8.82 ± 3.08 µM. The IC50 with SW480 was determined as 9.86 ± 1.69 µM. The IC50 with MRC5 stood at 3.94 ± 0.127 µM. Besides, the “HCR (Hypoxia Cytotoxicity Ratio = normoxic IC50/hypoxic IC50)” value with HCT116 [2] was determined as 1.5. Also, in the data set with HCT116 [2] (HTC 116, normoxia), the “DR (Deactivation Ratio = IC50 (prodrug)/IC50 (parent drug))” value was 128. Also, in the data set with HCT116 [2] (setting [4]), the IC50 worked out at 3.02 µM. For the same compound, the IC50 in the data set on HCT116 [2] (setting [5]) came to 9.05 µM. The “HCR (Hypoxia Cytotoxicity Ratio = normoxic IC50/hypoxic IC50)” value in the data set on H460 is reported as 7.8. Further, the “DR (Deactivation Ratio = IC50 (prodrug)/IC50 (parent drug))” value with H460 (H460, normoxia) turned out to be 293. Besides, in the data set with H460 (setting [6]), the IC50 is 6.5 µM. Further, the IC50 in the data set with H460 (setting [7]) turned out to be 51 µM.
`Cn1c(COP(=O)(NCCBr)NCCBr)cnc1[N+](=O)[O-]` [Evofosfamide, evofosfamide]: the “HCR (Hypoxia Cytotoxicity Ratio = normoxic IC50/hypoxic IC50)” value in the data set on HCT116 [2] (HTC 116) came to 85; in the data set on H460 (H460), 251. For the same compound, the IC50 came out at 0.0201 µM with HCT116 [2] (setting [4]), 0.0239 µM with HCT116 [2] (setting [5]), 0.0172 µM in the data set on H460 (setting [6]) and 4.32 µM in the data set on H460 (setting [7]).
Consider `COC(=O)Nc1nc2ccc(C(=O)c3ccccc3)cc2[nH]1` [Mebendazole], for which, in “LogD”, the “LogD Mean ± SE” value worked out at 3.26 ± 0.01.
On to `Cc1nccn1CC1CCc2c(c3ccccc3n2C)C1=O` (centres unmarked) [Ondansetron], for which the “PBS (pH 7.4) Solubility μM Mean ± SE” value in “PBS (pH 7.4) solubility” is listed as 96 ± 3 μM.
For `CS(=O)(=O)OCCN(CCBr)c1c(C(=O)NCCO)cc([N+](=O)[O-])cc1[N+](=O)[O-]` [PR-104A], the figures for the “HCR (Hypoxia Cytotoxicity Ratio = normoxic IC50/hypoxic IC50)” value in the data set on HCT116 [2] (HTC 116) and with H460 (H460) were 10.5 and 2.5, respectively. In addition, the IC50 with HCT116 [2] (HTC 116, hypoxia, read-out: IC50 (Hypoxia)) turned out to be 0.861 µM; in the data set on HCT116 [2] (HTC 116, normoxia, read-out: IC50 (Normoxia)), 16.5 µM; in the data set on H460 (H460, hypoxia, read-out: IC50 (Hypoxia)), 0.533 µM; in the data set on H460 (H460, normoxia, read-out: IC50 (Normoxia)) it was 1.34 µM.
Turning to `CNC(=C[N+](=O)[O-])NCCSCc1ccc(CN(C)C)o1` [Ranitidine], in data set [3], the “Permeability (Papp) Log [10^−6 cm/s] Mean ± SE” value is less than −7 Log [10^−6 cm/s].

Source of the values: US11548891B1, “Quaternary ammonium salts of phenanthroindolizidine and phenanthroquinolizidine alkaloids as hypoxia-targeted anticancer agents” (BATTERJEE MEDICAL COLLEGE, priority 2022, dated 2023).
